Experimental data published in ChEMBL document CHEMBL5724696, “Autophagy assay results for EUbOPEN Chemogenomics Library” (2024).

What was measured:
U2OS [1] = test: (§1) Here: values are normalized to the positive (DMSO; basel flux = defined as 100% suppression) and negative (250nM Torin1; mTOR inhibitor; maximal inducer of autophagy defined as 0% suppression) control compounds and represented as % of ER-phagy suppression. […] The impact of autophagy induction on cells is complex and depends on the affected target. […] Of note, treatment concentrations may be sub-optimal for specific compounds, leading to false negative annotations.; format: functional, Homo sapiens; details: Compound Concentration 1 uM, Culturing Media DMEM, 1 % Penicillin/Streptomycin, 10% Fetal bovin serum Add-On: blasticidin, Screening Media Control DMEM, 10% Fetal bovin serum Add-On: 1 µg/ml Doxycyclin, Screening Media Samples DMEM, 10% Fetal bovin serum Add-On: 1 µg/ml Doxycyclin 250nM Torin1
U2OS [2] = test: as §1; format: functional, Homo sapiens; details: Compound Concentration 1 uM, Culturing Media DMEM, 1 % Penicillin/Streptomycin, 10% Fetal bovin serum Add-On: blasticidin, Screening Media Control DMEM, 10% Fetal bovin serum Add-On: 1 µg/ml Doxycyclin, Screening Media Samples DMEM, 10% Fetal bovin serum Add-On: 1 µg/ml Doxycyclin 250nM Torin1; remark: listed apart in the source

O=C1Nc2ccc(I)cc2/C1=C/c1cc(Br)c(O)c(Br)c1
ER-phagy suppression (U2OS [1]; Timepoint 12 hours): -13.4504%
ER-phagy suppression (U2OS [1]; Timepoint 24 hours): -24.7924%
ER-phagy suppression (U2OS [1]; Timepoint 36 hours): -11.7006%
ER-phagy suppression (U2OS [1]; Timepoint 60 hours): -13.1814%
ER-phagy suppression (U2OS [2]; Timepoint 12 hours): -35.4464%
ER-phagy suppression (U2OS [2]; Timepoint 24 hours): -41.788%
ER-phagy suppression (U2OS [2]; Timepoint 36 hours): -41.037%
ER-phagy suppression (U2OS [2]; Timepoint 54 hours): -30.605%

CN1CCN(C(=O)C(C)(C)c2ccc(C(=O)Nc3cn4cc(-c5cc(C(C)(C)C)cc(C(C)(C)C)c5)ccc4n3)cc2)CC1 [T3-CLK-N]
ER-phagy suppression (U2OS [1]; Timepoint 12 hours): 2.466%
ER-phagy suppression (U2OS [1]; Timepoint 24 hours): 0.7117%
ER-phagy suppression (U2OS [1]; Timepoint 36 hours): -6.9152%
ER-phagy suppression (U2OS [1]; Timepoint 60 hours): -11.2006%
ER-phagy suppression (U2OS [2]; Timepoint 12 hours): -1.207%
ER-phagy suppression (U2OS [2]; Timepoint 24 hours): -16.3306%
ER-phagy suppression (U2OS [2]; Timepoint 36 hours): -17.7073%
ER-phagy suppression (U2OS [2]; Timepoint 54 hours): -17.4198%

Cc1ccc(-c2cnc([C@@]3(O)CC[C@H](C(=O)O)C(C)(C)C3)s2)cc1Nc1cccc(C(F)(F)F)n1 [MRL-SYKi-NC]
ER-phagy suppression (U2OS [1]; Timepoint 12 hours): -10.2062%
ER-phagy suppression (U2OS [1]; Timepoint 24 hours): -4.2474%
ER-phagy suppression (U2OS [1]; Timepoint 36 hours): -12.4056%
ER-phagy suppression (U2OS [1]; Timepoint 60 hours): -6.238%
ER-phagy suppression (U2OS [2]; Timepoint 12 hours): -2.6288%
ER-phagy suppression (U2OS [2]; Timepoint 24 hours): -19.3711%
ER-phagy suppression (U2OS [2]; Timepoint 36 hours): -27.7592%
ER-phagy suppression (U2OS [2]; Timepoint 54 hours): -26.2542%

CCOc1cn(-c2ccc(F)cc2C)nc1C(=O)Nc1ccc(Oc2ccnc3cc(OC)c(OC)cc23)c(F)c1
ER-phagy suppression (U2OS [1]; Timepoint 12 hours): 7.441%
ER-phagy suppression (U2OS [1]; Timepoint 24 hours): -3.201%
ER-phagy suppression (U2OS [1]; Timepoint 36 hours): 13.658%
ER-phagy suppression (U2OS [1]; Timepoint 60 hours): 1.882%
ER-phagy suppression (U2OS [2]; Timepoint 12 hours): 8.613%
ER-phagy suppression (U2OS [2]; Timepoint 24 hours): -11.0646%
ER-phagy suppression (U2OS [2]; Timepoint 36 hours): -14.9155%
ER-phagy suppression (U2OS [2]; Timepoint 54 hours): -19.0742%

CNCc1ccc(-c2cc(-c3nc(-c4ccc(S(=O)(=O)C(C)C)cc4)cnc3N)on2)cc1 [BERZOSERTIB]
ER-phagy suppression (U2OS [1]; Timepoint 12 hours): 117.5%
ER-phagy suppression (U2OS [1]; Timepoint 24 hours): 96.408%
ER-phagy suppression (U2OS [1]; Timepoint 36 hours): 85.8575%
ER-phagy suppression (U2OS [1]; Timepoint 60 hours): 85.0285%
ER-phagy suppression (U2OS [2]; Timepoint 12 hours): 54.7938%
ER-phagy suppression (U2OS [2]; Timepoint 24 hours): 32.6309%
ER-phagy suppression (U2OS [2]; Timepoint 36 hours): 31.7276%
ER-phagy suppression (U2OS [2]; Timepoint 54 hours): 38.9692%

CN1C(=O)[C@@H](N2CCc3c(nn(Cc4ccccc4)c3Br)C2=O)COc2ccccc21 [TP-030-2]
ER-phagy suppression (U2OS [1]; Timepoint 12 hours): -11.1908%
ER-phagy suppression (U2OS [1]; Timepoint 24 hours): -12.0413%
ER-phagy suppression (U2OS [1]; Timepoint 36 hours): -22.9996%
ER-phagy suppression (U2OS [1]; Timepoint 60 hours): -25.2811%
ER-phagy suppression (U2OS [2]; Timepoint 12 hours): 7.634%
ER-phagy suppression (U2OS [2]; Timepoint 24 hours): -14.2706%
ER-phagy suppression (U2OS [2]; Timepoint 36 hours): -10.5345%
ER-phagy suppression (U2OS [2]; Timepoint 54 hours): -6.796%

Cc1cc(NC(=O)c2cccc(S(F)(F)(F)(F)F)c2)cc(-n2ccn3nc(-c4cccnc4)cc23)c1 [BAY-309]
ER-phagy suppression (U2OS [1]; Timepoint 12 hours): 7.299%
ER-phagy suppression (U2OS [1]; Timepoint 24 hours): 1.781%
ER-phagy suppression (U2OS [1]; Timepoint 36 hours): 3.502%
ER-phagy suppression (U2OS [1]; Timepoint 60 hours): -2.656%
ER-phagy suppression (U2OS [2]; Timepoint 12 hours): 7.105%
ER-phagy suppression (U2OS [2]; Timepoint 24 hours): -8.178%
ER-phagy suppression (U2OS [2]; Timepoint 36 hours): -9.412%
ER-phagy suppression (U2OS [2]; Timepoint 54 hours): -2.397%

COc1cc(C2c3cc4c(cc3[C@H](O)[C@H]3COC(=O)[C@@H]23)OCO4)cc(OC)c1OC (stereo partly specified)
ER-phagy suppression (U2OS [1]; Timepoint 12 hours): 13.7164%
ER-phagy suppression (U2OS [1]; Timepoint 24 hours): -2.596%
ER-phagy suppression (U2OS [1]; Timepoint 36 hours): 7.675%
ER-phagy suppression (U2OS [1]; Timepoint 60 hours): 9.356%
ER-phagy suppression (U2OS [2]; Timepoint 12 hours): 19.9758%
ER-phagy suppression (U2OS [2]; Timepoint 24 hours): 6.76%
ER-phagy suppression (U2OS [2]; Timepoint 36 hours): 5.125%
ER-phagy suppression (U2OS [2]; Timepoint 54 hours): 8.089%

C[C@@H](NC(=O)Nc1cc2[nH]ncc2c(CO)n1)c1ccccc1 [ERKi]
ER-phagy suppression (U2OS [1]; Timepoint 12 hours): -20.6264%
ER-phagy suppression (U2OS [1]; Timepoint 24 hours): 1.384%
ER-phagy suppression (U2OS [1]; Timepoint 36 hours): -7.522%
ER-phagy suppression (U2OS [1]; Timepoint 60 hours): -12.4094%
ER-phagy suppression (U2OS [2]; Timepoint 12 hours): 6.504%
ER-phagy suppression (U2OS [2]; Timepoint 24 hours): -3.07%
ER-phagy suppression (U2OS [2]; Timepoint 36 hours): -4.694%
ER-phagy suppression (U2OS [2]; Timepoint 54 hours): -0.09872%

COc1cc(Nc2nccc(-c3cnn4nc(OC)ccc34)n2)cc(C(F)(F)F)c1
ER-phagy suppression (U2OS [1]; Timepoint 12 hours): 6.994%
ER-phagy suppression (U2OS [1]; Timepoint 24 hours): 7.618%
ER-phagy suppression (U2OS [1]; Timepoint 36 hours): 14.0346%
ER-phagy suppression (U2OS [1]; Timepoint 60 hours): 17.1827%
ER-phagy suppression (U2OS [2]; Timepoint 12 hours): 3.334%
ER-phagy suppression (U2OS [2]; Timepoint 24 hours): -9.159%
ER-phagy suppression (U2OS [2]; Timepoint 36 hours): -23.3987%
ER-phagy suppression (U2OS [2]; Timepoint 54 hours): -10.034%

C[C@@H]1COCCN1c1cc(C2([S@](C)(=N)=O)CC2)nc(-c2cc[nH]c3nccc2-3)n1 [CERALASERTIB]
ER-phagy suppression (U2OS [1]; Timepoint 12 hours): -20.381%
ER-phagy suppression (U2OS [1]; Timepoint 24 hours): -14.6462%
ER-phagy suppression (U2OS [1]; Timepoint 36 hours): -13.688%
ER-phagy suppression (U2OS [1]; Timepoint 60 hours): -10.6655%
ER-phagy suppression (U2OS [2]; Timepoint 12 hours): 5.203%
ER-phagy suppression (U2OS [2]; Timepoint 24 hours): -10.6428%
ER-phagy suppression (U2OS [2]; Timepoint 36 hours): -11.7869%
ER-phagy suppression (U2OS [2]; Timepoint 54 hours): -16.7098%

CC(C)NC(=O)N1CC[C@H](NC2=Nc3cc(F)ccc3N(CC(F)F)c3ccc(Cl)cc32)C1
ER-phagy suppression (U2OS [1]; Timepoint 12 hours): -0.3952%
ER-phagy suppression (U2OS [1]; Timepoint 24 hours): -5.126%
ER-phagy suppression (U2OS [1]; Timepoint 36 hours): -3.1%
ER-phagy suppression (U2OS [1]; Timepoint 60 hours): -4.344%
ER-phagy suppression (U2OS [2]; Timepoint 12 hours): -34.3378%
ER-phagy suppression (U2OS [2]; Timepoint 24 hours): -42.165%
ER-phagy suppression (U2OS [2]; Timepoint 36 hours): -48.481%
ER-phagy suppression (U2OS [2]; Timepoint 54 hours): -44.6081%
